Results: patent US8618145B2, “Small molecular compounds capable of accelerating proliferation of stem cells and use thereof” (priority 2009, dated 2013)

Tests used:
Embryonic stem cell = test: embryonic stem cell proliferation, ATP method (CellTiter-Glo); assay type: cell-based; conditions: serum free medium, culturing 1 to 4 days, FIG. 1
Protocol: (§1) Embryonic stem cell (obtained from oosperm according to the conventional method) is cultured in serum free medium (a conventional medium, such as DMEM/F12, αMEM, 1640, etc.). The experiments are divided into control group, FGF group, neural stem cells proliferation accelerator Ia group, FGF+neural stem cells proliferation accelerator Ia group. After culturing for 1 to 4 days, the kit CellTiter-Glo®Luminescent Cell Viability Assay (Promega) is used to detect cells proliferation by ATP method. The ATP method is performed in accordance with operational steps of the kit.
Therefore, Ia accelerates the proliferation of embryonic stem cells.

Rat neural stem cells = test: rat neural stem cell proliferation, ATP method; assay type: cell-based; conditions: serum free medium; for proliferation rate of neural stem cells in rat: rat adult neural stem cells
Protocol: as §1
Rat neural stem cells are cultured in serum free medium. The experiments are divided into control group, FGF group, small molecular compound Ia group, and FGF+small molecular compound Ia group. The detection is carried out by ATP method (see the method in Example 6). Small molecular compound Ib, Ic, Id, Ie, If, Ig also conduct said experiment.

Human neural stem cells = test: human neural stem cell proliferation, MTT; assay type: cell-based; conditions: DMEM/F12+10% fetal bovine serum+EGF, bFGF, 4 days, FIG. 2
Protocol: Human neural stem cells (provided according to conventional methods by Peking University Stem Cell Research Center) is prepared into a single cell suspension by using a medium (DMEM/F12+10% fetal bovine serum+20 ng/mIEGF, bFGF), and is seeded at 2×10^4/well on 96-well plate. The experiments are divided into medium control group (a group without adding a medicine); medium+small molecular compound Ia group (a group with a medicine added). After culturing for 4 days, MTT (5 mg/ml) 10 ul is added. After incubating for 4 hours, a 100 μl lysis solution (10% SDS, 0.1% NH4Cl) is added. The mixture is incubated overnight. The light absorption value is detected at 490 nm.
The experimental results are shown in FIG. 2, the height of the histogram represents absorbance, which is proportional to the number of cells (which has the same vertical coordinate in the MTT method, and is not explained one by one).

[1] = test system: Human mesenchymal stem cells; test: human mesenchymal stem cell proliferation, MTT; assay type: cell-based; conditions: α-MEM+10% fetal bovine serum, 2 days, FIG. 3
Protocol: (§2) Human (rat) mesenchymal stem cells (a cell line obtained according to conventional method) is prepared into a single cell suspension by using a medium (α-MEM+10% fetal bovine serum), and is seeded at 1×10^4/well on 96-well plate. The experiments are divided into medium control group; and medium+small molecular compound Ia group. After culturing for 2 days, MTT (5 mg/ml) 10 ul is added. After incubating for 4 hours, a 100 μl lysis solution (10% SDS, 0.1% NH4Cl) is added. The mixture is incubated overnight. The light absorption value is detected at 490 nm.

[2] = test system: rat mesenchymal stem cells; test: rat mesenchymal stem cell proliferation, MTT; assay type: cell-based; conditions: α-MEM+10% fetal bovine serum, 2 days, FIG. 4
Protocol: as §2

[3] = test system: AD rat model (aggregated Aβ1-40 injected in hippocampus); test: pharmacodynamic evaluation in AD rat (Morris water maze); assay type: in vivo; conditions: tail vein injection, administration for 14 days, FIG. 5
Protocol: Establishment of AD rat model: in the experiment, stereotaxic instrument and micro-injection pump are used to inject aggregated Aβ1-40 (5 ug/ul) 2 ul (0.4 ul/min, 5 min) to the dorsal blade of the dentate gyrus in the hippocampus of rat (3.0 mm behind anterior fontanelle, open at right 2.0 mm, subdural 3.2 mm, Incisor hook plane is 2.4 mm lower than the interaural line plane), the model is established after 2 weeks. […]
Pharmacodynamic experiment (Morris water maze): the experimental apparatus is a rustless steel round pool with a height of 60 cm, and a diameter of 150 cm (both the bottom and wall of the pool are covered by black paster to facilitate the video camera for distinguishing the white rats in pool), the video camera is connected to a computer; the pool is divided into four quadrants, and a platform is placed in the middle of the first quadrant. […] The experimental rats enter water from four different positions, the video camera records the swimming paths of each experimental rats, and the experimental results are analyzed by image processing software. […] During the experiment, the time the rat taken from entering water to climbing onto the platform (i.e., escape latency) is recorded, and the rat is allowed to stay on the platform for 10 sec. […] The escape latency of the animals, times of rearing up, and spatial bias are recorded and compared.

[4] = test system: hippocampus cells of AD rat; test: HE staining of hippocampus cells in AD rat; assay type: in vivo; conditions: AD rat of Example 13, dosage-dependent, FIG. 6 and FIG. 7
Protocol: The rats in Example 13 are perfused and their brains are taken. Rats are anesthetized with 10% chloral hydrate (0.3 ml/100 g). Heparin (200 ug/kg) is injected to the left ventricular, and the right atrial appendage is cut off. 40 ml physiological saline and then 300 ml 4% paraformaldehyde are perfused to the left ventricular to harden the brain. Brain taken: after breaking the neck, the skull is peeled to expose olfactory bulb, peeling it from olfactory bulb with a small curved scissor. After optic nerve is cut off, it is slowly peeled to naturally fall, the adhesion sites are cut off, and are placed into 4% paraformaldehyde solution overnight. It is dehydrated with gradient alcohol and is embedded in olefin, sectioned and floated.
HE staining: dewaxing with dimethylbenzene twice, each for 3 min. Hydration: hydration with descending concentration gradient alcohol: 100%→95%→90%→80%→70%. Dehydration lasts for 2˜3 mins to remove dimethylbenzene during each gradient. Water washing: ethanol is removed. It is dipped into a hematoxylin solution for 5-10 mins, and washed with tap-water. It is dipped into a dilute hydrochloric acid-ethanol solution to carry out color separation for only a few seconds. It is washed with tap-water and dipped into dilute ammonia to make the cell nucleus blue for 3-5 mins. […] It is mounted with neutral resin, and observed by […].

Structure (SMILES)	embryonic stem cell proliferation (chemiluminescence intensity) (Embryonic stem cell)	proliferation rate of neural stem cells in rat (Rat neural stem cells)	effect on rat neural stem cell proliferation (in words) (Rat neural stem cells)	human neural stem cell proliferation (absorbance at 490 nm) (Human neural stem cells)	human mesenchymal stem cell proliferation [1]	rat mesenchymal stem cell proliferation [2]	ability of learning and memory (water maze) [3]	degeneration of hippocampus cells (HE staining) [4]
NNC(=S)Nc1ccc(-c2nnc(S)o2)cc1 [Ia, 4-(4-(5-mercapto-1,3,4-oxadiazol-2-yl)phenyl) thiosemicarbazide]	significantly increased	4.2	accelerate rat neural stem cell proliferation	accelerates human neural stem cell proliferation	accelerates human mesenchymal stem cell proliferation	accelerates rat mesenchymal stem cell proliferation	improved ability of learning and memory	less seriously degenerated
CNC(=S)Nc1ccc(-c2nnc(O)o2)cc1 [Ig, 1-methyl-3-(4-(5-oxo-4,5-dihydro-1,3,4-oxadiazol-2-yl)phenyl)thiourea]		2.4	accelerate rat neural stem cell proliferation					
COc1ccc(NNC(=S)Nc2ccc(-c3nnc(S)o3)cc2)cc1 [If]		2.3	accelerate rat neural stem cell proliferation					
CSc1nnc(-c2ccc(NC(=S)NN)cc2)o1 [Ib, 4-(4-(5-(methylthio)-1,3,4-oxadiazol-2-yl)phenyl) thiosemicarbazide]		2	accelerate rat neural stem cell proliferation					
S=C(NNc1ccc(Cl)cc1)Nc1ccc(-c2nnc(S)o2)cc1 [Ie]		2.5	accelerate rat neural stem cell proliferation					
NNC(=O)Nc1ccc(-c2nnc(S)o2)cc1 [Id, 4-(4-(5-mercapto-1,3,4-oxadiazol-2-yl)phenyl) semicarbazide]		1.7	accelerate rat neural stem cell proliferation					
CNC(=S)Nc1ccc(-c2nnc(SC)o2)cc1 [Ic, 1-methyl-3-(4-(5-(methylthio)-1,3,4-oxadiazol-2-yl)phenyl)thiourea]		1.5	accelerate rat neural stem cell proliferation					
